Results published in patent publication US8871753B2, “Macrocyclic compounds and their use as kinase inhibitors” (Incyte Corporation, priority 2008, dated 2014).
Where a name gives a salt, the structure may show the parent alone.

Columns and labels:
Type in all cases: biochemical
TYK2 = TYK2 (Homo sapiens, UniProt P29597); test: TYK2 kinase inhibition (Table A1)
[1] = biological target: T1, Recombinant Human Anaplastic Lymphoma Kinase (Homo sapiens, UniProt Q9UM73); test: ALK HTRF kinase assay; details: compound at 500 nM or 1 mM; 90 μM ATP
T1 construct: purchased Invitrogen, Carlsbad, Calif
T1 sequence (Q9UM73 19-1620): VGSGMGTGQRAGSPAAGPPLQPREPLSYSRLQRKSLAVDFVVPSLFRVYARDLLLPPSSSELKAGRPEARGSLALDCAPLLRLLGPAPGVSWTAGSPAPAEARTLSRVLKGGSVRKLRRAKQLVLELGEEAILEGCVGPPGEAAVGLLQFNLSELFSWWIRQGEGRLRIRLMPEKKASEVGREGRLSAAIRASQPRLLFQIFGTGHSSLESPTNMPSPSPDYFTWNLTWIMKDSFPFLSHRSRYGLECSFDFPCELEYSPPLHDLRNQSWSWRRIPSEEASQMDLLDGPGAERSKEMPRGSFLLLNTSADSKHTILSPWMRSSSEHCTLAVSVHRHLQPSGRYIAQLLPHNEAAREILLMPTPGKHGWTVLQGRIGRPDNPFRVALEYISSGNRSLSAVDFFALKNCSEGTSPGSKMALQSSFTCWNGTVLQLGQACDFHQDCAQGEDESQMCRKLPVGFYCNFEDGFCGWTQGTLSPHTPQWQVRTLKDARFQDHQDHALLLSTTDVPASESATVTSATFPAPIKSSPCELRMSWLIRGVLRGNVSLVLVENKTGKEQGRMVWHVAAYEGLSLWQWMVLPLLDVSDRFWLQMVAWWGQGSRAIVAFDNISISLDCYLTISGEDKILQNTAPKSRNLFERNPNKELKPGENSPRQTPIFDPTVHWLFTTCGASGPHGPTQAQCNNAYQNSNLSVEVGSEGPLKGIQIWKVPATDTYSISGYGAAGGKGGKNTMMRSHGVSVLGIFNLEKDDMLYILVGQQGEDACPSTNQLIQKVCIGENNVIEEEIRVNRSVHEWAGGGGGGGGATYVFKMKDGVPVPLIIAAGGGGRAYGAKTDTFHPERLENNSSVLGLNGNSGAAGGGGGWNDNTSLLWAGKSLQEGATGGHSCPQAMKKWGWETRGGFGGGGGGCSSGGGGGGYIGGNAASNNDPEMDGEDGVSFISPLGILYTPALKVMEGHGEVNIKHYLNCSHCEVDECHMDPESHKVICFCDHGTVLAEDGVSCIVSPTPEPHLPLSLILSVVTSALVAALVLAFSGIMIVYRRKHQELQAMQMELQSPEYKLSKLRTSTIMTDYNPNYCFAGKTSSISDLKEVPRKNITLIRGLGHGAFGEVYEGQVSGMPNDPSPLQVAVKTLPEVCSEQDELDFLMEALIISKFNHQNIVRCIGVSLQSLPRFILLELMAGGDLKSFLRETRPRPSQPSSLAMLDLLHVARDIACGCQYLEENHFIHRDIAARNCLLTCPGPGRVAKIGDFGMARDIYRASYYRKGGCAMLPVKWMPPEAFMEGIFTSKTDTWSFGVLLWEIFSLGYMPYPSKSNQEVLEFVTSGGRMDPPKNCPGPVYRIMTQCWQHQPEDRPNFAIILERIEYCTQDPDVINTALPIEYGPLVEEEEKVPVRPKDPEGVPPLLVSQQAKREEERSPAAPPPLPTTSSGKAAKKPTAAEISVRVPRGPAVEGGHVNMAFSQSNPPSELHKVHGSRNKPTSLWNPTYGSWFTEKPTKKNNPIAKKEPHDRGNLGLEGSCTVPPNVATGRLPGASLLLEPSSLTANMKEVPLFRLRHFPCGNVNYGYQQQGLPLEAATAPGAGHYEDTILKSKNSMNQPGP
Outline: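 Recombinant human ALK with biotinylated peptide substrate; phosphorylation detected by HTRF using Eu-labelled anti-phosphotyrosine antibody and streptavidin-allophycocyanin. IC50 from a sigmoidal fit with Hill slope.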

[2] = biological target: T2, human JAK1 (a.a. 837-1142) (Homo sapiens, UniProt P23458); test: In vitro JAK kinase assay (HTRF, phosphorylation of a biotinylated peptide), JAK1; details: method AA1 (90 μM ATP) or AA2 (1000 μM ATP), not stated per value; read-out: JAK1 IC50
T2 construct: human JAK1 (a.a. 837-1142); His tag (N); made in house; host or cells: insect cells (baculovirus)
T2 sequence (P23458 849-1154): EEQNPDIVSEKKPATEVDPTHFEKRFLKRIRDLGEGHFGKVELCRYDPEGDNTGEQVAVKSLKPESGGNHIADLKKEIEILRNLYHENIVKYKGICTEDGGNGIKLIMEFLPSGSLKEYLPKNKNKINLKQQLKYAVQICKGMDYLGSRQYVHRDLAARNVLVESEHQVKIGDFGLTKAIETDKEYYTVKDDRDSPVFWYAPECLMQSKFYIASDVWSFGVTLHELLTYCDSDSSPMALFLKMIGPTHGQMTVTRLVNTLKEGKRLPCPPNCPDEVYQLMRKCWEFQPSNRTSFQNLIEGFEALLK
Outline: (§1)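 Phosphorylation of a biotinylated peptide by the JAK kinase domain, detected by HTRF with Eu-Py20 and SA-APC. ATP was 90 μM for JAK1, 30 μM for JAK2 and 3 μM for JAK3. Reactions ran 1 h at room temperature and were stopped with EDTA, followed by 40 min antibody binding.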

[3] = biological target: T3, human JAK2 (a.a. 828-1132) (Homo sapiens, UniProt O60674); test: In vitro JAK kinase assay (HTRF, phosphorylation of a biotinylated peptide), JAK2; details: method AA1 (30 μM ATP) or AA2 (1000 μM ATP), not stated per value
T3 construct: JAK2 (a.a. 828-1132); His tag (N); made in house; host or cells: insect cells (baculovirus)
T3 sequence (O60674 828-1132): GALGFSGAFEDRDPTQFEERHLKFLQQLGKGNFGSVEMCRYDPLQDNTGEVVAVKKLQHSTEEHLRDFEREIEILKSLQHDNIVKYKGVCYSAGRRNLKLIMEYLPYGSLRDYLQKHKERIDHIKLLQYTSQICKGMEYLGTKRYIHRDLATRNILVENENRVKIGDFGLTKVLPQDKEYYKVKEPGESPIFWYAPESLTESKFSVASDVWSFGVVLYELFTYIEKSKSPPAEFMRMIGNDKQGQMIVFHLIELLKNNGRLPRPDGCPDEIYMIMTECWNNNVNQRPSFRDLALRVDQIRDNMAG
Outline: as §1

[4] = biological target: T4, human JAK3 (a.a. 781-1124) (Homo sapiens, UniProt P52333); test: In vitro JAK kinase assay (HTRF, phosphorylation of a biotinylated peptide), JAK3; details: method AA1 (3 μM ATP) or AA2 (1000 μM ATP), not stated per value
T4 construct: JAK3 (a.a. 781-1124); His tag (N); made in house; host or cells: insect cells (baculovirus)
T4 sequence (P52333 781-1124): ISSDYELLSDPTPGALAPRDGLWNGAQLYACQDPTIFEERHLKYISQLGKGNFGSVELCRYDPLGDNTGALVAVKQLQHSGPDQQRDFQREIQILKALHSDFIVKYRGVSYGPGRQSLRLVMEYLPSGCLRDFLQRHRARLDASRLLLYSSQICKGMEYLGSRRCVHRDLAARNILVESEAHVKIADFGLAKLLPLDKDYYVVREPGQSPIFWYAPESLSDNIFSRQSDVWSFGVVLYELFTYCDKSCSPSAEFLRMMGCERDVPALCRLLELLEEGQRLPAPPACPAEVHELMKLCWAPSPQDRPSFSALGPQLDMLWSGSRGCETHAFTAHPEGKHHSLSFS
Outline: as §1

Chain of TYK2 (P29597 whole entry): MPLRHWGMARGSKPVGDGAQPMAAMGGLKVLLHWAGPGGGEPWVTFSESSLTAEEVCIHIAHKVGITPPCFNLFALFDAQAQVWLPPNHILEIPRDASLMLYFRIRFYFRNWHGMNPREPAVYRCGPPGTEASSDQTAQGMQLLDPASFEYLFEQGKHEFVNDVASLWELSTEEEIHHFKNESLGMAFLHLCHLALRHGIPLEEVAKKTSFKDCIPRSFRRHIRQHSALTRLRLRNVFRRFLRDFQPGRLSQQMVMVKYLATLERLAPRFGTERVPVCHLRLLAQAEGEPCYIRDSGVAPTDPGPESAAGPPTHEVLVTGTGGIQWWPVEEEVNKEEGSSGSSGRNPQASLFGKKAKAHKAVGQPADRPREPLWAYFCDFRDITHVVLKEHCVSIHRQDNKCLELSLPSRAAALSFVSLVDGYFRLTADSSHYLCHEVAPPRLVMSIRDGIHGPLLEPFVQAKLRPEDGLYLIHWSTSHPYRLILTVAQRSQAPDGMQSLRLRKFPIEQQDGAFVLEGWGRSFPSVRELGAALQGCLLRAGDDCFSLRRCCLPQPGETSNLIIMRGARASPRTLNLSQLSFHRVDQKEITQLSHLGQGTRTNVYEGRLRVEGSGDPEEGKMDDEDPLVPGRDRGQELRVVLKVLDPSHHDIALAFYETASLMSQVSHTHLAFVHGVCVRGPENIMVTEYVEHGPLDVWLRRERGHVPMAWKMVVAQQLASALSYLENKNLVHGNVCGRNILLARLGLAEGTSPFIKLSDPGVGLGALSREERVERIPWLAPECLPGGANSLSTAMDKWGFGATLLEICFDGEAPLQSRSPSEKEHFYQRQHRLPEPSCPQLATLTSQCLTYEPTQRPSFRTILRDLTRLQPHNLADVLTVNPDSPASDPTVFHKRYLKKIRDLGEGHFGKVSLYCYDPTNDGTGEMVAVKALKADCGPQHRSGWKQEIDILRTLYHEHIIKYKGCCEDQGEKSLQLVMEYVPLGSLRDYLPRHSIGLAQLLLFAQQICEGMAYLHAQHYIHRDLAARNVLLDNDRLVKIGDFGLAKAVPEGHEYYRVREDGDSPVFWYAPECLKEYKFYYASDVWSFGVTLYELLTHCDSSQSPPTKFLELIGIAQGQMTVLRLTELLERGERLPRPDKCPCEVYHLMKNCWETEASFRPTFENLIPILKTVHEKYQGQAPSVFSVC

Structure (SMILES)	IC50 (TYK2) [nM]	ALK % of inhibition at a concentration of 500 nM or 1 mM [1] [%]	IC50 [2] [nM]	IC50 [3] [nM]	IC50 [4] [nM]
O=C(CC1CCN(C(=O)NC2CCCC2)CC1)Nc1ccc2cc1CCc1cccc(c1)Nc1ncc(Cl)c(n1)N2 [Example A64, 4-(2-{[6-Chloro-2,4,8,22-tetraazatetracyclo[14.3.1.1(3,7).1(9,13)]docosa-1(20),3(22),4,6,9(21),10,12,16,18-nonaen-12-yl]amino}-2-oxoethyl)-N-cyclopentylpiperidine-1-carboxamide trifluoroacetate]	23	23	13	6.5	30
N#CCC(=O)Nc1ccc2cc1CCc1cccc(c1)Nc1ncc(Cl)c(n1)N2 [Example A65, N-[6-Chloro-2,4,8,22-tetraazatetracyclo[14.3.1.1(3,7).1(9,13)]docosa-1(20), 3(22),4,6,9(21),10,12,16,18-nonaen-12-yl]-2-cyanoacetamide trifluoroacetate]	17	39	9	11	7.3
O=C(CNC(=O)Nc1ccccc1)Nc1ccc2cc1CCc1cccc(c1)Nc1ncc(Cl)c(n1)N2 [Example A66, 2-[(Anilinocarbonyl)amino]-N-[6-chloro-2,4,8,22-tetraazatetracyclo[14.3.1.1(3,7).1(9,13)]docosa-1(20),3(22),4,6,9(21),10,12,16,18-nonaen-12-yl]acetamide trifluoroacetate]	21	26	9	3.1	6.2
O=C(CCNC(=O)Nc1ccccc1)Nc1ccc2cc1CCc1cccc(c1)Nc1ncc(Cl)c(n1)N2 [Example A67, 3-[(Anilinocarbonyl)amino]-N-[6-chloro-2,4,8,22-tetraazatetracyclo[14.3.1.1(3,7).1(9,13)]docosa-1(20),3(22),4,6,9(21),10,12,16,18-nonaen-12-yl]propanamide trifluoroacetate]	10	40	8	2.8	7.7
O=C(Nc1ccccc1)N[C@@H](CO)C(=O)Nc1ccc2cc1CCc1cccc(c1)Nc1ncc(Cl)c(n1)N2 [Example A68, (2S)-2-[(Anilinocarbonyl)amino]-N-[6-chloro-2,4,8,22-tetraazatetracyclo[14.3.1.1(3,7).1(9,13)]docosa-1(20),3(22),4,6,9(21),10,12,16,18-nonaen-12-yl]-3-hydroxypropanamide trifluoroacetate]	11	46	2	2.8	4.1
O=C(Nc1ccc2cc1CCc1cccc(c1)Nc1ncc(Cl)c(n1)N2)[C@@H]1CCCN1C(=O)Nc1ccccc1 [Example A69, (2S)—N(2)-[6-Chloro-2,4,8,22-tetraazatetracyclo[14.3.1.1(3,7).1(9,13)]docosa-1(20),3(22),4,6,9(21),10,12,16,18-nonaen-12-yl]-N(1)-phenylpyrrolidine-1,2-dicarboxamide trifluoroacetate]	39	27	41	7.7	16
CC(C)(C)OC(=O)N1CCC(CC(=O)Nc2ccc3cc2CCc2cncc(c2)Nc2ncc(Cl)c(n2)N3)CC1 [Example A70, tert-Butyl 4-(2-{[6-chloro-2,4,8,18,22-pentaazatetracyclo[14.3.1.1(3,7).1(9,13)]docosa-1(20),3(22),4,6,9(21),10,12,16,18-nonaen-12-yl]amino}-2-oxoethyl)piperidine-1-carboxylate bis(trifluoroacetate)]	110	18	20	57	195
O=C(CC1CCNCC1)Nc1ccc2cc1CCc1cncc(c1)Nc1ncc(Cl)c(n1)N2 [Example A71, N-[6-Chloro-2,4,8,18,22-pentaazatetracyclo[14.3.1.1(3,7).1(9,13)]docosa-1(20),3(22),4,6,9(21),10,12,16,18-nonaen-12-yl]-2-piperidin-4-ylacetamide tris(trifluoroacetate)]	57	26	19	69	112
NS(=O)(=O)N1CCC(C(=O)Nc2ccc3cc2CCc2cccc(c2)Nc2ncc(Cl)c(n2)N3)CC1 [Example A72, 1-(Aminosulfonyl)-N-[6-chloro-2,4,8,22-tetraazatetracyclo[14.3.1.1(3,7).1(9,13)]docosa-1(20),3(22),4,6,9(21),10,12,16,18-nonaen-12-yl]piperidine-4-carboxamide trifluoroacetate]	16	34	18	3.7	10
NS(=O)(=O)N1CCCC(C(=O)Nc2ccc3cc2CCc2cccc(c2)Nc2ncc(Cl)c(n2)N3)C1 (centres unmarked) [Example A73, 1-(Aminosulfonyl)-N-[6-chloro-2,4,8,22-tetraazatetracyclo[14.3.1.1(3,7).1(9,13)]docosa-1(20),3(22),4,6,9(21),10,12,16,18-nonaen-12-yl]piperidine-3-carboxamide trifluoroacetate]	8	49	10	0.7	3
NS(=O)(=O)N1CC[C@@H](C(=O)Nc2ccc3cc2CCc2cccc(c2)Nc2ncc(Cl)c(n2)N3)C1 [Example A74, (3R)-1-(Aminosulfonyl)-N-[6-chloro-2,4,8,22-tetraazatetracyclo[14.3.1.1(3,7).1(9,13)]docosa-1(20),3(22),4,6,9(21),10,12,16,18-nonaen-12-yl]pyrrolidine-3-carboxamide trifluoroacetate]	17	48	6	3	3.3
NS(=O)(=O)N1CCC(CC(=O)Nc2ccc3cc2CCc2cccc(c2)Nc2ncc(Cl)c(n2)N3)CC1 [Example A75, 2-[1-(Aminosulfonyl)piperidin-4-yl]-N-[6-chloro-2,4,8,22-tetraazatetracyclo[14.3.1.1(3,7).1(9,13)]docosa-1(20),3(22),4,6,9(21),10,12,16,18-nonaen-12-yl]acetamide trifluoroacetate]	0.3	51	0.2	0.2	3.2
CC(=O)N1CCC(CC(=O)Nc2ccc3cc2CCc2cncc(c2)Nc2ncc(Cl)c(n2)N3)CC1 [Example A76, 2-(1-Acetylpiperidin-4-yl)-N-[6-chloro-2,4,8,18,22-pentaazatetracyclo[14.3.1.1(3,7).1(9,13)]docosa-1(20),3(22),4,6,9(21),10,12,16,18-nonaen-12-yl]acetamide bis(trifluoroacetate)]	3.9	21	2	4.1	124
O=C(CC1CCN(C(=O)Nc2ccccc2)CC1)Nc1ccc2cc1CCc1cncc(c1)Nc1ncc(Cl)c(n1)N2 [Example A77, 4-(2-{[6-Chloro-2,4,8,18,22-pentaazatetracyclo[14.3.1.1(3,7).1(9,13)]docosa-1(20),3(22),4,6,9(21),10,12,16,18-nonaen-12-yl]amino}-2-oxoethyl)-N-phenylpiperidine-1-carboxamide bis(trifluoroacetate)]	4	35	0.6	0.7	35
NS(=O)(=O)N1CCC(CC(=O)Nc2ccc3cc2CCc2cncc(c2)Nc2ncc(Cl)c(n2)N3)CC1 [Example A78, 2-[1-(Aminosulfonyl)piperidin-4-yl]-N-[6-chloro-2,4,8,18,22pentaazatetracyclo[14.3.1.1(3,7).1(9,13)]docosa-1(20),3(22),4,6,9(21),10,12,16,18-nonaen-12-yl]acetamide bis(trifluoroacetate)]	0.3	39	0.4	0.3	12
CS(=O)(=O)N1CCC(CC(=O)Nc2ccc3cc2CCc2cncc(c2)Nc2ncc(Cl)c(n2)N3)CC1 [Example A79, N-[6-Chloro-2,4,8,18,22-pentaazatetracyclo[14.3.1.1(3,7).1(9,13)]docosa-1(20),3(22),4,6,9(21),10,12,16,18-nonaen-12-yl]-2-[1-(methylsulfonyl)piperidin-4-yl]acetamide bis(trifluoroacetate)]	3.6	33	0.5	1.9	46
